Data taken from patent US6989397B1, “Iron chelators and uses thereof” (University of Queensland, priority 1999, dated 2006).
Where “and” joins values, the source holds several entries; their conditions need not be identical. Equal entries are not always repeated. Where two headings read alike, the source gives them in different places.

Tests used:
[1] = system: SK-N-MC neuroepithelioma cells; experiment: 59Fe release from prelabelled cells (iron efflux); assay type: cell-based, human; conditions: 3 hr labelling, 3 hr reincubation, ligands 50 μM, DFO 100 μM, FIG. 2A screening experiment
Experimental: The effect of chelators on ^59Fe uptake from ^59Fe-Tf and ^59Fe release from prelabelled cells was studied using standard procedures reported previously (Richardson et al., 1994, J. Lab Clin. Med. 124 660–71). The amount of ^59Fe internalized by the cells was measured by incubation with the general protease pronase (1 mg/ml) for 30 min at 4° C. to remove membrane-bound ^59Fe and Tf (Richardson et al., 1990; Baker et al., 1998, Biochim. Biophys. Acta 1380 21–30).
The efflux of ^59Fe from SK-N-MC cells was examined after a 3 hr labelling period with ^59Fe-Tf (0.75 μM) followed by a 3 hr reincubation in the presence and absence of DFO (100 μM) or the remainder of the ligands at 50 μM (FIG. 2A).
Table 1. The effect of DFO, 311, PCTH, PCBH, or PCBHH on ^59Fe release from BE-2 neuroblastoma cells, SK-N-MC neuroepithelioma cells, and SK-Mel-28 melanoma cells. Cells were labeled for 3 h at 37° C. with ^59Fe-transferrin (0.75 μM), washed, and then reincubated with the chelators for 3 h at 37° C. […] Results are Mean±SD of three determinations in a typical experiment.

[2] = system: SK-N-MC neuroepithelioma cells; experiment: internalized 59Fe uptake from 59Fe-transferrin; assay type: cell-based, human; conditions: SK-N-MC; 3 hrs at 37° C.; chelators 50 μM, DFO 100 μM; FIG. 2B screening experiment
Experimental: The effect of chelators on ^59Fe uptake from ^59Fe-Tf and ^59Fe release from prelabelled cells was studied using standard procedures reported previously (Richardson et al., 1994, J. Lab Clin. Med. 124 660-71). The amount of ^59Fe internalized by the cells was measured by incubation with the general protease pronase (1 mg/ml) for 30 min at 4° C. to remove membrane-bound ^59Fe and Tf (Richardson et al., 1990; Baker et al., 1998, Biochim. Biophys. Acta 1380 21-30). […] To determine the ability of the chelators to inhibit ^59Fe uptake from ^59Fe-Tf (0.75 μM). […] Table 2. The effect of DFO, 311, […], or PCBHH on internalized ^59Fe uptake from ^59Fe-transferrin by BE-2 neuroblastoma cells, SK-N-MC neuroepithelioma cells, and SK-Mel-28 melanoma cells. Cells were incubated with the chelators and ^59Fe-transferrin (0.75 μM) for 3 h at 37° C., washed, and incubated for 30 min at 4° C. with pronase (1 mg/ml) to separate the internalized from the membrane-bound ^59Fe. All chelators were screened at a concentration of 50 μM except for DFO which was examined at 100 μM. Results are mean±SD (three determinations) from a typical experiment.

[3] = system: iron-regulatory proteins (IRPs); experiment: iron regulatory protein gel-retardation assay (IRP-RNA binding activity); assay type: cell-based, human; conditions: SK-N-MC cells, 20 hr incubation; chelators 25 μM, DFO 100 μM, FAC 100 μg/ml
Experimental: FIG. 5. The effect of the chelators on the RNA-binding activity of the iron-regulatory proteins (IRPs) in the SK-N-MC neuroepithelioma cells. Cells were incubated for 20 h with either medium alone (control), ferric ammonium citrate (FAC: 100 μg/ml), DFO (100 μM), or the other chelators (25 μM).
A gel-retardation assay was used to measure the interaction between the IRPs and IRE using established techniques (Leibold et al., […]. Proc. Natl. Acad. Sci. USA 85 2171–5; Müllner et al., 1989 Cell 58 373–82). Briefly, after incubation with medium alone (control) or medium containing ferric ammonium citrate (100 μg/ml: Aldrich Ltd., Sydney, Australia) or the chelator. […] cells were washed with ice-cold phosphate-buffered saline (PBS) and lysed at 4° C. in 40 μl of ice-cold Munro extraction buffer (10 mM HEPES, pH 7.6, 3 mM MgCl2, 40 mM KCl, 5% glycerol, 1 MM dithiothreitol and 0.5% Nonidet P-40). After lysis, the samples were then centrifuged at 10,000 rpm for 3 mins at 4° C. to remove nuclei and the supernatant stored at −70° C. Frozen cytoplasmic extracts were thawed on ice and then centrifuged at 15,000 rpm for 10 min at 4° C. The protein concentration of the soluble supernatant was determined using the BioRad protein assay (BioRad Ltd., USA). Samples of cytoplasmic extracts were diluted to a protein concentration of 100 μg/ml in Munro buffer without Nonidet P-40 and 1 μg aliquots were analyzed for IRP by incubation with 0.1 ng (approximately 1×10^5 cpm) of ^32P-labelled pGL66 RNA transcript (Leibold et al., 1988). The riboprobe was transcribed in vitro from linearized plasmid templates using SP6 RNA polymerase in the presence of α-^32P UTP (Dupont, NEN). This latter reaction was performed using the Promega Riboprobe In Vitro Transcription Kit (Promega, Madison, Wis., USA). The probe was subsequently purified on a 6% urea/PAGE gel. To form RNA-protein complexes, cytoplasmic extracts containing 1 μg of protein were incubated for 10 mins at room temperature with the ^32P-labelled riboprobe. Unprotected probe was degraded by incubation with 1 U of RNAse T1 for 10 mins at room temperature. Heparin (Sigma) at a final concentration of 5 mg/ml was then added and incubated with the extract for another 10 min at room temperature to exclude non-specific binding. RNA-protein complexes were analyzed in 6% non-denaturing polyacrylamide gels at 4° C. as described by Konarska et al., 1986, Cell 46 845–55. Gels were dried, covered in plastic film and exposed to Kodak XAR films at −70° C. with an intensifying screen.
An important effect of intracellular Fe depletion using DFO is the activation of RNA-binding activity of the iron regulatory proteins (IRP's) (Hentze et al., 1996, Proc. Natl. Acad. Sci. USA 93 8175–82). […] The present inventors examined the effect of a 20 hr incubation with 311, PIH and the PCIH analogues (25 μM) on IRP-RNA binding activity in SK-N-MC cells. In all experiments, DFO (100 μM) was used as a positive control to deplete cells of Fe and increase IRP-RNA binding activity. In contrast, ferric ammonium citrate (FAC: 100 μg/ml) was used to donate Fe to cells and reduce IRP-RNA binding.

[4] = system: 59Fe-loaded reticulocytes; experiment: mobilisation of 59Fe from 59Fe-loaded reticulocytes (mitochondrial Fe overload model); assay type: cell-based, rabbit; conditions: for cellular 59Fe mobilized from 59Fe-loaded reticulocytes after 240 min: chelators 200 μM, 240 min of incubation; for cellular 59Fe released from 59Fe-loaded reticulocytes, 1 h reincubation (FIG. 9): chelator concentration 200 μM (range 10–200 μM), reincubated 1 h at 37° C.
Experimental: (§1) FIG. 7. The effect of reincubation time with the Fe chelators on ^59Fe mobilization from ^59Fe-loaded reticulocytes. The cells were labelled with ^59Fe-transferrin (3.75 μM) in the presence of the heme synthesis inhibitor, succinylacetone (1 mM), and incubated with the cells for 1 h at 37° C. The ^59Fe-labelled reticulocytes were then incubated with the chelators (200 μM) for 15–240 min at 37° C. The results are Mean±SD (3 determinations) in a typical experiment of three performed.
as §1, with “9.” for “7.”, “chelator concentration” for “reincubation time with the Fe chelators”, “(10–200” for “(200”
Reticulocytosis was induced by standard procedures (Richardson, D. R., Ponka, P and Vyoral, D (1996) Blood 87, 3477–3488) in New Zealand white rabbits by repeated phlebotomy by cardiac puncture using a protocol approved by the McGill University Animal Care Committee. Reticulocytes were identified based on staining with new methylene blue, and cell counts were determined using an improved Neubauer counting chamber.
Reticulocytes were obtained from chronically bled rabbits as described above and were incubated with 1 mM succinylacetone (SA: Sigma) to inhibit heme synthesis. After a 15 min preincubation in the presence of SA, ^59Fe-Tf ([…]) was added and incubated with the cells for 1 H at 37° C. with shaking. After this incubation the reticulocytes were washed three times with ice-cold PBS to remove non-specifically bound ^59Fe-Tf. The washed ^59Fe-labelled reticulocytes (30–35 μL) were incubated in buffered salt solution (250 μL final volume) with the apochelators. The SA was present in all incubations with the chelators to prevent the utilization of non-heme ^59Fe for heme synthesis. After the incubation, ^59Fe was measured both in washed reticulocytes and in the medium, and the percentage of ^59Fe mobilized from the reticulocytes was then calculated.

aqueous solubility = assay type: physicochemical; conditions: water / aqueous solutions
[5] = system: SK-N-MC neuroepithelioma cells; experiment: 3H-thymidine, 3H-leucine or 3H-uridine incorporation; assay type: cell-based, human; conditions: 20 hr with chelators 50 μM, DFO 100 μM, then label 2 h, Mean±SD
Experimental: Labelling of cells with ^3H-thymidine (20 Ci/mmol: Dupont NEN, MA, U.S.A.), ^3H-uridine (42.7 Ci/mmol/Dupont NEN, MA, U.S.A.) and ^3H-leucine (52 Ci/mmol: Dupont NEN) was estimated after precipitation with trichloroacetic acid (TCA). After a 20 hr incubation with the chelators, ^3H-leucine, ^3H-uridine or ^3H-thymidine (1 μCi/ml) were then added for 2 hrs at 37° C. Subsequently, petri dishes containing cell cultures were placed on ice and washed four times with ice-cold Hanks' balanced salt solution (BSS) and the cells detached from the plate using 1 mM EDTA in Ca/Mg-free saline. The cells were then pelleted by centrifugation, the supernatant removed and the pellet frozen at −70° C. After thawing the cells on ice, 1 ml of ice-cold 20% TCA was added and the solution then vortexed and kept on ice for 1 hr with periodic mixing. This solution was then centrifuged at 15,000 rpm for 15 mins at 4° C. and the supernatant removed. The pellet was then washed twice with 1 ml of ice-cold 10% TCA. The pellet was dissolved in 0.5 ml of 1 M NaOH and transferred to scintillation tubes with 3 ml of scintillant. Radioactivity was measured on a β-scintillation counter (LKB Wallace, Finland).
Table 3. The effect of the chelators on ^3H-thymidine, ^3H-leucine, or ^3H-uridine incorporation into SK-N-MC neuroepithelioma cells. Cells were incubated for 20 hr at 37° C. with either DFO (100 μM) or the other chelators (50 μM). Following this, either ^3H-thymidine, ^3H-leucine, or ^3H-uridine (1 μCi/mL) were added and the cells incubated for an additional 2 h at 37° C. (see Methods for details). Results are Mean±SD (4–5 determinations) from a typical experiment of 2–4 experiments performed.

[6] = system: iron-regulatory proteins (IRPs); experiment: iron regulatory protein gel-retardation assay (IRP-RNA binding activity); assay type: cell-based, human
[7] = Fe-overloaded patients (Olivieri et al.); cited from earlier work

## Nc1ccc(C(=O)NN=Cc2ccccn2)cc1 [PCAH, 2-pyridylcarboxaldehyde p-aminobenzoyl hydrazone]
[1]
  release of cellular 59Fe (FIG. 2A): did not appreciably increase
[2]
  59Fe uptake from 59Fe-Tf, % of the control value (FIG. 2B): no effect
[3]
  IRP-RNA binding activity compared to the control (FIG. 5): decreased
[4]; FIG. 7
  cellular 59Fe mobilized from 59Fe-loaded reticulocytes after 240 min: 15%

## O=C(NN=Cc1ccccn1)c1ccc(O)cc1 [PCHH, 2-pyridylcarboxaldehyde p-hydroxybenzoyl hydrazone]
[1]
  release of cellular 59Fe (FIG. 2A): did not appreciably increase
[2]
  59Fe uptake from 59Fe-Tf, % of the control value (FIG. 2B): no effect
[3]
  IRP-RNA binding activity compared to the control (FIG. 5): decreased
[4]; 3 determinations
  cellular 59Fe released from 59Fe-loaded reticulocytes, 1 h reincubation (FIG. 9): very low activity
[4]; FIG. 7
  cellular 59Fe mobilized from 59Fe-loaded reticulocytes after 240 min: 6%

## O=C(NN=Cc1ccccn1)c1ccncc1 [PCIH, 2-pyridylcarboxaldehyde isonicotinoyl hydrazone]
[2]
  59Fe uptake from 59Fe-Tf, % of the control value (FIG. 2B): slightly more effective than DFO
[3]
  IRP-RNA binding activity compared to the control (FIG. 5): little effect
[4]; chelator 200 μM, 15 min incubation, 37° C., FIG. 7, 3 determinations
  cellular 59Fe mobilized from 59Fe-loaded reticulocytes after 15 min: 21±1%
[4]; 3 determinations
  cellular 59Fe released from 59Fe-loaded reticulocytes, 1 h reincubation (FIG. 9): 31±1%
[4]; eight compounds, 200 μM, reincubated up to 240 min
  cellular 59Fe release from reticulocytes as a function of incubation time (FIG. 7), rank in words: most effective

## Cl.Cl.O=C(NN=Cc1ccccn1)c1ccncc1 [PCIH-2HCl]
Aqueous solubility
  aqueous solubility, in words: most soluble

## Cl.O=C(NN=Cc1ccccn1)c1cccs1 [PCTH-HCl]
Aqueous solubility
  aqueous solubility, in words: lowest aqueous solubility of the series

## Cc1ncc(CO)c(C=NNC(=O)c2ccncc2)c1O [PIH, pyridoxal isonicotinoyl hydrazone, reference compound]
[5]
  3H-Leucine incorporation, % Control: 84 ± 5 % Control
  3H-Thymidine incorporation, % Control: 52 % Control and 52 ± 9 % Control
  3H-Uridine incorporation, % Control: 56 ± 9 % Control
[3]
  IRP-RNA binding activity compared to the control (FIG. 5): little effect
[4]; 3 determinations
  cellular 59Fe released from 59Fe-loaded reticulocytes, 1 h reincubation (FIG. 9): 18±1%
[6]; higher concentrations than 25 μM, not specified
  IRP-RNA binding activity at higher concentrations: did increase

## Cc1c(O)c(=O)ccn1C [deferiprone, 1,2-dimethyl-3-hydroxypyrid-4-one]
[7]
  adverse outcome of treatment of patients: hepatic fibrosis and an increase in liver Fe levels

## ferric ammonium citrate [FAC]
[6]
  IRP-RNA binding activity compared to the control (FIG. 5): appreciable decrease
